How the values were obtained:
COVID-19 infection = test: Phase IIa study: eye-family symptom score; assay type: in vivo
[1] = tested on: SARS-CoV-2 cellular entry; details: in vitro as well as in vivo; cited from earlier work
SARS-CoV-2 [2] = details: 600 mg po four times daily for up to 14 days; cited from earlier work
SARS-CoV-2 [3] = test: Phase IIa double-blind placebo-controlled study, camostat mesylate 200 mg four times daily for seven days: viral load (log10) by COVID-19 RT-PCR of nasopharyngeal swab and saliva; assay type: in vivo

With CN(C)C(=O)COC(=O)Cc1ccc(OC(=O)c2ccc(NC(=N)N)cc2)cc1 [camostat, 4-[[4-[(Aminoiminomethyl)amino]benzoyl]oxy]benzeneacetic acid 2-(dimethylamino)-2-oxoethyl ester] the “eye-family symptom score, Fitzmaurice model, Camostat” value (COVID-19 infection; day 0) was 1.4 (0.2), the “eye-family symptom score, Fitzmaurice model, Camostat” value (COVID-19 infection; day 1) was 1.4 (0.2) and the “eye-family symptom score, Fitzmaurice model, Effect (placebo vs camostat)” value (“eye-family symptom score … (placebo vs camostat)” for short) (COVID-19 infection; day 1) was −0.3 (0.3). The “eye-family symptom score, Fitzmaurice model, Camostat” value (COVID-19 infection; day 2) was 1.2 (0.2), the “eye-family symptom score … (placebo vs camostat)” value (COVID-19 infection; day 2) was −0.2 (0.3) and the “eye-family symptom score, Fitzmaurice model, Camostat” value (COVID-19 infection; day 3) was 0.9 (0.2). The “eye-family symptom score … (placebo vs camostat)” value (COVID-19 infection; day 3) was −0.2 (0.3), the “eye-family symptom score, Fitzmaurice model, Camostat” value (COVID-19 infection; day 4) was 0.5 (0.2) and the “eye-family symptom score … (placebo vs camostat)” value (COVID-19 infection; day 4) was 0.2 (0.3). For the same molecule, the “eye-family symptom score, Fitzmaurice model, Camostat” value (COVID-19 infection; day 5) was 0.5 (0.2), the “eye-family symptom score … (placebo vs camostat)” value (COVID-19 infection; day 5) was −0.2 (0.3) and the “eye-family symptom score, Fitzmaurice model, Camostat” value (COVID-19 infection; day 6) was 0.2 (0.2). For the same molecule, the “eye-family symptom score … (placebo vs camostat)” value (COVID-19 infection; day 6) was 0.3 (0.3), the “eye-family symptom score, Fitzmaurice model, Camostat” value (COVID-19 infection; day 7) was 0.2 (0.2) and the “eye-family symptom score … (placebo vs camostat)” value (COVID-19 infection; day 7) was 0.3 (0.3). For the same molecule, the “eye-family symptom score, Fitzmaurice model, Camostat” value (COVID-19 infection; day 8) was 0.1 (0.2), the “eye-family symptom score … (placebo vs camostat)” value (COVID-19 infection; day 8) was 0.5 (0.3) and the “eye-family symptom score, Fitzmaurice model, Camostat” value (COVID-19 infection; day 9) was 0.2 (0.2). For the same molecule, the “eye-family symptom score … (placebo vs camostat)” value (COVID-19 infection; day 9) was 0.4 (0.3), the “eye-family symptom score, Fitzmaurice model, Camostat” value (COVID-19 infection; day 10) was 0.2 (0.2) and the “eye-family symptom score … (placebo vs camostat)” value (COVID-19 infection; day 10) was 0.3 (0.3). The “eye-family symptom score, Fitzmaurice model, Camostat” value (COVID-19 infection; day 11) was 0 (0.2), the “eye-family symptom score … (placebo vs camostat)” value (COVID-19 infection; day 11) was 0.4 (0.3) and the “eye-family symptom score, Fitzmaurice model, Camostat” value (COVID-19 infection; day 12) was 0 (0.2). The “eye-family symptom score … (placebo vs camostat)” value (COVID-19 infection; day 12) was 0.3 (0.3), the “eye-family symptom score, Fitzmaurice model, Camostat” value (COVID-19 infection; day 13) was 0.1 (0.2) and the “eye-family symptom score … (placebo vs camostat)” value (COVID-19 infection; day 13) was 0.1 (0.3). The “eye-family symptom score, Fitzmaurice model, Camostat” value (COVID-19 infection; day 14) was 0.2 (0.2), the “eye-family symptom score … (placebo vs camostat)” value (COVID-19 infection; day 14) was 0.1 (0.3) and the SARS-CoV-2 cellular entry [1] was “can be blocked”. The “time required for a negative SARS-CoV-2 test (primary endpoint)” value (SARS-CoV-2 [2]) was “did not show efficacy”, the “viral load, Fitzmaurice mixed model, Common baseline” value (SARS-CoV-2 [3]; N gene, day 0) was 6.5 (6, 6.9) ^ log10 and the “viral load change Effect (camostat vs placebo), Fitzmaurice mixed model, visit 2” value (SARS-CoV-2 [3]; N gene, day 2) was −0.06 (−0.83, 0.7) log10. For the same molecule, the “viral load, Fitzmaurice mixed model, visit 2” value (SARS-CoV-2 [3]; N gene, day 2) was 5.3 (4.6, 5.9) log10, the “viral load, Fitzmaurice mixed model, visit 2 change” value (SARS-CoV-2 [3]; N gene, day 2) was −1.2 (−1.8, −0.6) log10 and the “viral load change Effect (camostat vs placebo), Fitzmaurice mixed model, visit 3(D4)” value (SARS-CoV-2 [3]; N gene, day 4) was −0.74 (−1.51, 0.03) log10. For the same molecule, the “viral load, Fitzmaurice mixed model, visit 3(D4)” value (SARS-CoV-2 [3]; N gene, day 4) was 4.4 (3.8, 5.1) log10, the “viral load, Fitzmaurice mixed model, visit 3(D4) change” value (SARS-CoV-2 [3]; N gene, day 4) was −2 (−2.6, −1.5) log10 and the “viral load change Effect (camostat vs placebo), Fitzmaurice mixed model, visit 4(D6)” value (SARS-CoV-2 [3]; N gene, day 6) was −0.23 (−1.4, 0.94) log10. For the same molecule, the “viral load, Fitzmaurice mixed model, visit 4(D6)” value (SARS-CoV-2 [3]; N gene, day 6) was 2.8 (2, 3.7) ^ log10, the “viral load, Fitzmaurice mixed model, visit 4(D6) change” value (SARS-CoV-2 [3]; N gene, day 6) was −3.6 (−4.5, −2.8) log10 and the “change in viral load from baseline, Mean” value (SARS-CoV-2 [3]; N gene, visit 1 (day 0)) was 0.00 log10. For the same molecule, the “change in viral load from baseline, Median” value (“change in viral load … Median” for short) (SARS-CoV-2 [3]; N gene, visit 1 (day 0)) was 0.00 log10, the “viral load (log10) Mean” value (SARS-CoV-2 [3]; N gene, visit 1 (day 0)) was 6.35 log10 and the “viral load (log10) Median” value (SARS-CoV-2 [3]; N gene, visit 1 (day 0)) was 6.47 log10. For the same molecule, the “change in viral load from baseline, Mean” value (SARS-CoV-2 [3]; N gene, visit 2 (day 2)) was −1.15 log10, the “change in viral load … Median” value (SARS-CoV-2 [3]; N gene, visit 2 (day 2)) was −1.14 log10 and the “viral load (log10) Mean” value (SARS-CoV-2 [3]; N gene, visit 2 (day 2)) was 4.89 log10. For the same molecule, the “viral load (log10) Median” value (SARS-CoV-2 [3]; N gene, visit 2 (day 2)) was 4.49 log10, the “change in viral load from baseline, Mean” value (SARS-CoV-2 [3]; N gene, visit 3 (day 4)) was −2.07 log10 and the “change in viral load … Median” value (SARS-CoV-2 [3]; N gene, visit 3 (day 4)) was −2.32 log10. The “viral load (log10) Mean” value (SARS-CoV-2 [3]; N gene, visit 3 (day 4)) was 4.35 log10, the “viral load (log10) Median” value (SARS-CoV-2 [3]; N gene, visit 3 (day 4)) was 4.56 log10 and the “change in viral load from baseline, Mean” value (SARS-CoV-2 [3]; N gene, visit 4 (day 6)) was −3.41 log10. For the same molecule, the “change in viral load … Median” value (SARS-CoV-2 [3]; N gene, visit 4 (day 6)) was −3.07 log10, the “viral load (log10) Mean” value (SARS-CoV-2 [3]; N gene, visit 4 (day 6)) was 2.58 log10 and the “viral load (log10) Median” value (SARS-CoV-2 [3]; N gene, visit 4 (day 6)) was 2.48 log10. For the same molecule, the “change in viral load from baseline, Mean” value (SARS-CoV-2 [3]; N gene, visit 5 (day 14)) was −5.21 log10, the “change in viral load … Median” value (SARS-CoV-2 [3]; N gene, visit 5 (day 14)) was −5.52 log10 and the “viral load (log10) Mean” value (SARS-CoV-2 [3]; N gene, visit 5 (day 14)) was 1.21 log10. The “viral load (log10) Median” value (SARS-CoV-2 [3]; N gene, visit 5 (day 14)) was 0.12 log10, the “change in viral load from baseline, Mean” value (SARS-CoV-2 [3]; N gene, visit 6 (day 28)) was −6.33 log10 and the “change in viral load … Median” value (SARS-CoV-2 [3]; N gene, visit 6 (day 28)) was −6.60 log10. The “viral load (log10) Mean” value (SARS-CoV-2 [3]; N gene, visit 6 (day 28)) was 0.05 log10, the “viral load (log10) Median” value (SARS-CoV-2 [3]; N gene, visit 6 (day 28)) was 0.00 log10 and the “change in viral load from baseline, Mean” value (SARS-CoV-2 [3]; ORF1ab gene, visit 1 (day 0)) was 0.00 log10. For the same molecule, the “change in viral load … Median” value (SARS-CoV-2 [3]; ORF1ab gene, visit 1 (day 0)) was 0.00 log10, the “viral load (log10) Mean” value (SARS-CoV-2 [3]; ORF1ab gene, visit 1 (day 0)) was 6.17 log10 and the “viral load (log10) Median” value (SARS-CoV-2 [3]; ORF1ab gene, visit 1 (day 0)) was 6.50 log10. The “change in viral load from baseline, Mean” value (SARS-CoV-2 [3]; ORF1ab gene, visit 2 (day 2)) was −1.17 log10 and the “change in viral load … Median” value (SARS-CoV-2 [3]; ORF1ab gene, visit 2 (day 2)) was −1.04 log10.
